In patent publication US10799456B2, “Multiple drug lipid nanoparticle composition and related methods for extended drug levels in blood and lymph tissue” (priority 2015, dated 2020):

What was measured:
HIV-2(287) replication = test: Antiviral activity in HIV-infected CEM-174 cells; type: cell-based; conditions: Human immunodeficiency virus 2, CEM174, LPV:RTV:PMPA fixed 1:1:0.5 (m/m/m), LNP form; read-out: EC50 (nM), Drug-lipid nanoparticles with 3 drug combination
Description: The antiviral activity of the three-drug combination in soluble or LNP form was evaluated in HIV-infected CEM-174 cells as described previously. […] J Acquir Immune Defic Syndr 2003; 34(4):387-397, incorporated herein by reference in its entirety. […] The dose of drugs added to cells represents the sum of bound and unbound drugs in these anti-HIV LNP formulations.

[1] = Drug incorporation/encapsulation (association) efficiency of multi-drug LNPs by dialysis; type: physicochemical; conditions: for Degree of incorporation (% total): anti-HIV LNPs LPV/RTV/PMPA
Description: The anti-HIV LNP formulations contain both unbound drug and drugs bound to lipid nanoparticles. […] Drugs were quantified by LC-MS/MS using acetonitrile precipitation. Encapsulation efficiency (EE) was calculated as follows: […]

in vivo [2] = conditions: for concentration at 24 h: sc, Mean drug concentration, Plasma
Source text: Four young adult male macaques (Macaca nemestrina, 2.9-4.0 kg) were housed and cared for by the Washington National Primate Research Center (WaNPRC) under an approved Institutional Animal Care and Use Committee protocol.
The vehicle for the first suspension was bicarbonate-buffered saline with 3% ethanol and 0.2% bovine serum albumin. The vehicle for the second suspension was bicarbonate-buffered saline with 8% DMSO and 0.1% Tween 20.
(§1) Four macaques were divided into two treatment groups (two animals per group). […] Data were normalized to the anti-HIV LNP dose for comparative analysis.
(§2) Plasma was removed, PBMCs were isolated by the density gradient method, and cells were aliquoted into pellets of approximately 2 million PBMCs each. An inguinal lymph node was surgically excised 24 h after drug administration (n=2 per treatment), LNMCs were isolated by passage through a 100-lm nylon cell strainer (Corning, Tewksbury, Mass.), and cells were aliquoted into pellets of approximately 1-2 million LNMCs each. All samples were stored at −80° C. prior to drug analysis.
(§3) Plasma concentrations of all three drugs were analyzed simultaneously by liquid chromatography-tandem mass spectrometry using a recently published method. […] Antimicrob Agents Chemother 2014; 58(5):2675-2680, incorporated herein by reference in its entirety. PBMC and LNMC pellets were lysed using 200 μl water/methanol (1:1 v/v), sonicated for 10 min, and then extracted and analyzed using the same method as cited above. Intracellular concentrations were converted to ng/ml with the assumption that each cell has a volume of 4×10^−9 ml. Alberts B, Johnson A, Lewis J, et al. Molecular Biology of the Cell, 4 ed. Garland Science, New York, 2002, incorporated herein by reference in its entirety.
Data were analyzed by paired two-tailed Student's t-test with p<0.05 considered statistically significant.

in vivo [3] = conditions: male, Macaca nemestrina, in vivo, sc, Mean drug concentration, Lymph node
Description: as §1, §2, §3

[4] = Storage stability at 4° C. (fraction of drug bound, dialysis); type: physicochemical
Description: To test the long-term stability, the multi-drug nanoparticles were stored under refrigeration at 4° C. and were tested for stability after a prolonged period. The lipid-drug combination particles are stable as determined by both particle size and degree of drug association (Table 12). […] Even the hydrophilic compound, which readily diffuses out of most lipid particles in a number of hours, loses a remarkably low fraction of the associated drug after 8, 12, and 17 months in storage. This exceptional stability provides a substantial advantage for translation to clinical application.

[5] = pH dependent drug release from LPV/RTV/TFV lipid nanoparticles; type: physicochemical; conditions: 2 hrs
Source text: As described above, we established the pH-dependent association of various drugs to lipids at neutral pH and the consequent release of the drugs when pH is lowered. Also described above, this stable integration and pH-dependent release of drugs from the multiple drug lipid nanoparticles was consistent for both lipophilic and water soluble compounds. To confirm the pH dependent release of the individual drugs from the multiple drug combination lipid nanoparticles, LPV/RTV/PMPA(TFV) lipid nanoparticles, assembled as described above, were subjected to different pH environments, and the free drug component of the supernatant was assayed to determine the amount of release. […] When a lipid nanoparticle is localized in tissues and taken up by HIV-infected cells, the incorporated antiretroviral drugs are then released inside the cell organelles (such as endosome and lysosomes) when the pH is lowered.

[6] = % Drug association to particles by assembly method; type: physicochemical
Source text: Select one or two drugs hydrophilic and water soluble (Class 2) drugs listed in Table 19 (for example, tenofovir and/or emtricitabine and/or lamivudine). • 3. Select the excipient combination (for example, 9 parts DSPC and 1 part PEG-DSPE). • 4. Prepare a single-phase miscible solvent that enables full solubilization of the chosen water-insoluble Class 1 drugs and water soluble Class 2 drugs plus the excipients from step 3. Examples include CHCl3:Methanol:Water (65:35:4); CHCl3:Ethanol:Water (65:35:4); CHCl3:Propanol:Water (65:35:4); and CHCl3:Hexanol:Water (65:35:4). • 5. The components in Steps 1, 2 and 3 are solubilized with the miscible solvent in step 4. • 6. The drugs (steps 1 and 2) as well as excipients (step 3) and the miscible solvent (step 4) are dried under reduced pressure with assistance of a combination of heat, reduced pressure and/or aerosolization to provide for uniformity and efficiency of drying. • 7. The dehydrated composition is heated above gel-to-liquid phase transition temperature of the excipient mixture (e.g., 50° C.). • 8. A buffered saline solution is prepared and the temperature is equilibrated to the same temperature as dehydrated composition. • 9. The buffered saline solution and dehydrated composition are gradually combined and maintained at the defined (e.g., 50° C.) for 3 hr. • 10. The resulting hydrated multi-drug lipid nanoparticles are size-reduced by sheering or forcing through small orifice or pressurized filter apparatus while maintaining at the defined temperature (in liquid phase of lipidic excipients).

[7] = Sucrose gradient test of drug association; type: physicochemical; conditions: 5-20% sucrose gradient, 200,000 g, 4 hr; LPV/RTV/TFV LNPs, single miscible solvent method
Description: The sucrose gradient test to determine this characteristic is described in Example 5. Briefly, the sucrose gradient test comprises subjecting the multi-drug lipid nanoparticle to a continuous 5%-20% sucrose gradient and applying a centrifugal force of 200,000 g for 4 hours. The unassociated small molecules separate and float to the less dense fractions, whereas the associated small molecule agents sediment with the stable lipid nanoparticles in the denser gradients. The relative amounts of the unassociated and associated small molecule reagents can be quantified and, thus, compared.
The sucrose gradient test centrifugation test separates any unbound drugs from multi-drug lipid nanoparticles by sedimentation of lipid-drug particles through a sucrose gradient with increasing density to strip off unbound drugs. Under these conditions, all the free drugs in solution remained at (or floated to) the top of gradient where the sucrose density is low. Specifically, using a continuous gradient of 5-20% (with 65% cushion) sucrose, the lipid-drug particle mixture was subjected to centrifugal force at 200,000 g for 4 hr. Through this process, we were able to separate bound and unbound drug fractions. […] It is noted that the observed percentage of multi drug lipid nanoparticle association for the other two drugs (LPV and RTV) are consistent with data in Table 11.

[8] = cited from earlier work
HIV-1 = test: microbe, parasite or virus in culture; conditions: Human immunodeficiency virus 1, read-out: EC50 in LNP form
[9] = male, Macaca nemestrina, in vivo

Cc1cccc(C)c1OCC(=O)N[C@@H](Cc1ccccc1)[C@@H](O)C[C@H](Cc1ccccc1)NC(=O)[C@H](C(C)C)N1CCCNC1=O [Lopinavir (LPV), Lopinavir]
EC50 (HIV-2(287) replication): 3 ± 0.8 nM | % particle-bound ([1]; Combination 1, lipid:LPV:RTV:TFV 115:10:5:15, large scale): (86.4 ± 0.9) % | % particle-bound ([1]; Combination 3, lipid:LPV:EFV:TFV 200:26.6:20:40, large scale): (76.6) % | Degree of incorporation (% total) ([1]; clinical scale (15-40 ml)): 93.6 ± 5.5% | Degree of incorporation (% total) ([1]; laboratory scale (0.1-0.4 ml)): 74.2 ± 7.3% | AUC 0-8 (%) of total, LNP (in vivo [2]; [9]): 9.9% | AUC 8-168 (%) of total, LNP (in vivo [2]; [9]): 90.1% | AUC fraction (% of total) Anti-HIV LNP 24-168 h (in vivo [2]; [9]): 62.8 ± 9.9% | concentration at 24 h (in vivo [2]; male, Macaca nemestrina, in vivo, Anti-HIV LNP treatment): 596 ± 123 ng/mL | concentration at 24 h (in vivo [2]; male, Macaca nemestrina, in vivo, Free drug treatment): 24.5 ± 26.3 ng/mL | AUC Free drug 0-168 h (in vivo [2]; plasma, sc 25/14.3/17.1 mg/kg LPV/RTV/PMPA, four animals): 3830 ± 4040 ng·h/mL | concentration at 24 h (in vivo [3]; Anti-HIV LNP treatment): 1212 ± 9.8 ng/mL | concentration at 24 h (in vivo [3]; Free drug treatment): 0 ng/mL | Fraction of drug bound in multi-drug nanoparticles (% total) ([4]; 0 months): 82.70 ± 7.00% | Fraction of drug bound in multi-drug nanoparticles (% total) ([4]; 8 months): 95.33 ± 7.53% | Fraction of drug bound in multi-drug nanoparticles (% total) ([4]; 12 months): 94.62 ± 11.86% | Fraction of drug bound in multi-drug nanoparticles (% total) ([4]; 17 months, one batch): 92.89% | % Drug released from anti-HIV nanoparticles ([5]; pH 4.0, 37° C.): 93.7 ± 1.2% | % Drug released from anti-HIV nanoparticles ([5]; pH 5.5, 37° C.): 28.9 ± 1.4% | % Drug released from anti-HIV nanoparticles ([5]; pH 6.5, 37° C.): 3.9 ± 2.7% | % Drug released from anti-HIV nanoparticles ([5]; pH 7.4, 37° C.): 1 ± 0.6% | % Drug Association to Particles, LNPs from mixture of dual solvent method [6]: 80-100% | % Drug Association to Particles, LNPs from single, miscible solvent method [6]: 90-100% | % association to lipid-drug particles (bound fraction) [7]: 81.8% | Water solubility @ 25° C. [8]: 7.7 ng/mL | EC50 (HIV-1): 0.03 ± 0.0008 µM
